The term Emax denotes the size of the effect at its maximum, as opposed to the concentration needed.

Experiment [1] deals with T1, recombinant human Meningioma Expressed Antigen 5 (MGEA5), also referred to as O-GlcNAcase (OGA) (Homo sapiens, UniProt O60502).
T1 construct: Full length OGA enzyme was purchased at OnGene (cat #TP322411); purchased OnGene (so in the source)
T1 sequence (O60502 1-916): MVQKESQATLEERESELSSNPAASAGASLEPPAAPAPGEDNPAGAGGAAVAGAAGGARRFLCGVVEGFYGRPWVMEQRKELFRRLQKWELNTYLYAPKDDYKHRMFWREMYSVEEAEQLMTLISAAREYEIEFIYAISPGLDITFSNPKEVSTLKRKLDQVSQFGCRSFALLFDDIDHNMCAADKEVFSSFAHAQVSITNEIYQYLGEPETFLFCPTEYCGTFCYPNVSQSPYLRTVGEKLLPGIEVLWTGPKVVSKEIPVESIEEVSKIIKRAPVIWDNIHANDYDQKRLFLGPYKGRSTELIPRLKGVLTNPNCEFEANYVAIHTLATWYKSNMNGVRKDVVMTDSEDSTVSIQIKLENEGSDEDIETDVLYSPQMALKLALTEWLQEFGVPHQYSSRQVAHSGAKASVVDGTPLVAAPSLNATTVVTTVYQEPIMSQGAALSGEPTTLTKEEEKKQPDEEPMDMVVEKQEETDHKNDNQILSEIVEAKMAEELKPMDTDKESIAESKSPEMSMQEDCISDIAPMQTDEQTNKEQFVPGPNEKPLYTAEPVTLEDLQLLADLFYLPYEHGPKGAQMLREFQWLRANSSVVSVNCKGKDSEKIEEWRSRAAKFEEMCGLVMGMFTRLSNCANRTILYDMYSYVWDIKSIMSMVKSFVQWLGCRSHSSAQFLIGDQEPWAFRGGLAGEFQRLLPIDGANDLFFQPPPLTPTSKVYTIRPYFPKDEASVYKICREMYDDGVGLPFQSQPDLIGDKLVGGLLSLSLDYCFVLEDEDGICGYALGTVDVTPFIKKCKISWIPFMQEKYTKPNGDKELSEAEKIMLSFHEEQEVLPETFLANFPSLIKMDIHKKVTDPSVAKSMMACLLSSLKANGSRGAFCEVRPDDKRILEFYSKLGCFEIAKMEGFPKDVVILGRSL
Nature of the experiment: OGA biochemical assay: inhibition of hydrolysis of fluorescein mono-ß-D-N-Acetyl-Glucosamine (FM-GlcNAc), fluorescence readout. To be noted: FM-GlcNAc substrate; for Emax: read-out: Enzymatic Emax (%); for IC50: read-out: Enzymatic hOGA, pIC50 (converted). Summed up:
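Full-length recombinant human OGA (2 nM) was pre-incubated with compound for 60 min, then reacted with 100 uM FM-GlcNAc for 6 h at room temperature in 200 mM citrate/phosphate pH 7.2 with 0.005% Tween-20. Reactions were stopped with pH 11.0 carbonate and fluorescein read at 485/538 nm. IC50 and Hill coefficient came from curve fitting.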

For experiment [2], the system named is OGA in HEK293 cells inducible for P301L mutant human Tau (isoform 2N4R). The experiment can be described thus: OGA cellular assay: immunocytochemical detection of O-GlcNAcylated proteins (CTD110.6 antibody). The following applies: Homo sapiens, HEK293, 6 h, 6 hours incubation; for Emax: maximum = Thiamet G 200 uM; for EC50: read-out: Cellular hOGA, pEC50 (converted). Type of experiment: cell-based. Summed up:
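Cells seeded 2 days ahead in low-glucose assay medium and exposed to compounds for 6 h at 0.2% DMSO, then PFA-fixed and immunostained. Signal is 488 nm intensity from imaging (9 fields/well), with Hoechst nuclei counts as a toxicity check. IC50 from non-linear regression, with 200 uM Thiamet G per plate as maximum inhibition.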

Structures are written as SMILES.

As to `Cc1cc(OC(F)F)nc(C)c1Nc1nccc2c1ccn2CC1CC(F)(F)C1` [Compound 146], in experiment [1], the “Enzymatic hOGA; pIC50” value was 7.56 and the Emax is 101%. In experiment [2], the maximal effect (Emax) is 76.3% and the EC50 is 45.7 nM.
For `Cc1ccnc(C(C)C)c1Nc1nccc2c1ccn2CC(C)(F)F` [Compound 147], in that order: 8.81, 98.6%, 90.9% and around 4.47 nM.
For `Cc1cc(F)cc(C(C)C)c1Nc1nccc2c1ccn2CC(C)(F)F` [Compound 148], in that order: 8.89, 102%, 87.5% and around 4.79 nM.
`Cc1cc(OC(F)F)nc(C)c1Nc1nccc2c1ccn2CC(C)(F)F` [Compound 149]: in experiment [1], the “Enzymatic hOGA; pIC50” value is given as 8.58 and the maximum response (Emax) amounted to 101%. Besides, in experiment [2], the maximum response (Emax) came out at 96.4% and the EC50 was 10.7 nM.
For `Cc1cc(Cl)cc(C)c1Nc1nccc2c1ccn2CC(C)(F)F` [Compound 150], in that order: 8.57, 101%, 82.1% and 5.37 nM.
On the same counts, the results for `Cc1cc(F)cc(Cl)c1Nc1nccc2c1ccn2CC(C)(F)F` [Compound 151] are 8.61, 100%, 102% and 10.2 nM.
On the same counts, the results for `Cc1cc(F)c(F)c(C)c1Nc1nccc2c1ccn2CC(C)(F)F` [Compound 153] are 8.52, 102%, 74.1% and 20.4 nM.
As for `Cc1cc(-c2cnn(C)c2)cc(C)c1Nc1nccc2c1ccn2CC(C)(F)F` [Compound 154], in experiment [1], the “Enzymatic hOGA; pIC50” value is on record as 8.67 and the maximal response (Emax) came out at 101%. In addition, in experiment [2], the maximum response (Emax) was 86.2% and the EC50 is 3.47 nM.
On the same counts, the results for `Cc1cc(F)cc(F)c1Nc1nccc2c1ccn2CC(C)(F)F` [Compound 155] are 8, 101%, 73.3% and 50.1 nM.
For `Cc1cc(C)c(Nc2nccc3c2ccn3CC(C)(F)F)c(OC(F)F)n1` [Compound 156], in that order: 8.07, 102%, 70.9% and 45.7 nM.
`Cc1cc(Cn2ccc3c(Nc4c(Cl)cc(F)cc4Cl)nccc32)no1` [Compound 158]: in experiment [1], the “Enzymatic hOGA; pIC50” value is 8.58 and the Emax came to 101%. In experiment [2], the maximum response (Emax) is 71% and the EC50 is 63.1 nM.
On the same counts, the results for `Clc1cccc(Cl)c1Nc1nccc2c1ccn2CC1CCO1` (centres unmarked) [Compound 159] are 8.87, 104%, 84% and 20.4 nM.
For `Cc1ccnc(C(C)C)c1Nc1nccc2c1ccn2CC1CCO1` (centres unmarked) [Compound 160], in that order: 8.67, 103%, 96% and 8.13 nM.
For `Cc1cc(C(F)(F)F)cc(C(C)C)c1Nc1nccc2c1ccn2CC1CCO1` (centres unmarked) [Compound 161], in that order: 8.58, 104%, 88.8% and 6.76 nM.
As to `Cc1cc(F)cc(C(C)C)c1Nc1nccc2c1ccn2CC1CCO1` (centres unmarked) [Compound 163], in experiment [1], the “Enzymatic hOGA; pIC50” value worked out at 8.63 and the maximal response (Emax) was determined as 104%. In addition, in experiment [2], the Emax worked out at 90.3% and the EC50 is 4.17 nM.
On to `N#Cc1ccc(-n2ccc3c(Nc4c(Cl)cccc4Cl)nccc32)nc1` [Compound 166], for which, in experiment [1], the Emax stood at 101% and the IC50 was 47.9 nM. In addition, in experiment [2], the Emax worked out at 44.1% and the EC50 was 1000 nM.
For `Cn1cnc(-n2ccc3c(Nc4c(Cl)cccc4Cl)nccc32)c1` [Compound 167], in that order: 102%, 17 nM, 81.9% and around 224 nM.
As for `Clc1cccc(Cl)c1Nc1nccc2c1ccn2Cc1ncco1` [Compound 169], in experiment [1], the Emax amounted to 104% and the IC50 was 12 nM. For the same compound, in experiment [2], the Emax is 67.5% and the EC50 was 550 nM.
Take `Cc1cc(F)cc(C)c1Nc1nccc2c1ccn2CC1CC(F)(F)C1` [Compound 170]: in experiment [1], the maximum response (Emax) is 100% and the IC50 was 27.5 nM. Further, in experiment [2], the Emax came to 78.6% and the EC50 is 83.2 nM.
On the same counts, the results for `Cc1cc(F)cc(C(C)C)c1Nc1nccc2c1ccn2CC1CC(F)(F)C1` [Compound 171] are 103%, 6.03 nM, 73.8% and 38.9 nM.
For `Clc1cccc(Cl)c1Nc1nccc2c1ccn2Cc1ccon1` [Compound 172], in that order: 102%, 3.39 nM, 80.8% and 70.8 nM.
For `Cc1cc(Cl)cc(S(C)(=O)=O)c1Nc1nccc2c1ccn2CC1CC(F)(F)C1` [Compound 173], in that order: 101%, 23.4 nM, 88.5% and 158 nM.
Turning to `Cc1cccc(S(C)(=O)=O)c1Nc1nccc2c1ccn2CC1CC(F)(F)C1` [Compound 174], in experiment [1], the Emax came to 99.3% and the IC50 was 12.9 nM. Moreover, in experiment [2], the Emax amounted to 87% and the EC50 is 93.3 nM.
For `Cc1cc2c(c(C)c1Nc1nccc3c1ccn3CC1CC(F)(F)C1)OCCO2` [Compound 175], in that order: 100%, 6.31 nM, 80.1% and 37.2 nM.
For `Cc1cc(C(F)(F)F)cc(C)c1Nc1nccc2c1ccn2CC(F)(F)C(C)C` [Compound 176], in that order: 103%, 1.55 nM, 101% and 5.5 nM.
On the same counts, the results for `Cc1cc(-c2cnn(C)c2)cc(C)c1Nc1nccc2c1ccn2CC(F)(F)C(C)C` [Compound 178] are 101%, 1.12 nM, 103% and 2.95 nM.
For the compound `Cc1cc(C)c(Nc2nccc3c2ccn3CC(F)(F)C(C)C)c(OC(F)F)n1` [Compound 179], in experiment [1], the Emax came to 102% and the IC50 was 2.04 nM. In addition, in experiment [2], the Emax came out at 80.9% and the EC50 is 20.4 nM.
As for `Cc1cnc(-n2ccc3c(Nc4c(Cl)cc(F)cc4Cl)nccc32)o1` [Compound 183], in experiment [1], the maximum response (Emax) turned out to be 95.3% and the IC50 was 501 nM. In experiment [2], the Emax came to 13.9% and the EC50 is above 1000 nM.
Take `Cn1ccc(-n2ccc3c(Nc4c(Cl)cc(F)cc4Cl)nccc32)n1` [Compound 184]: in experiment [1], the Emax stood at 101% and the IC50 was 79.4 nM. In addition, in experiment [2], the maximal response (Emax) worked out at 46.5% and the EC50 was 912 nM.
For `Cc1cc(C(F)(F)F)nc(C)c1Nc1nccc2c1ccn2CC(F)(F)C(C)C` [Compound 185], in that order: 102%, 2.24 nM, 99.8% and 9.77 nM.
On the same counts, the results for `Cc1cc(F)cc(F)c1Nc1nccc2c1ccn2CC(F)(F)C(C)C` [Compound 186] are 102%, 4.27 nM, 85.9% and 24.5 nM.
On the same counts, the results for `Cc1cc(OC(F)(F)F)cc(C)c1Nc1nccc2c1ccn2CC(F)(F)C(C)C` [Compound 187] are 101%, 1.78 nM, 96.4% and 8.71 nM.

Source of the values: US20210277003A1, “OGA INHIBITOR COMPOUNDS” (Janssen Pharmaceutica NV, priority 2018, published 2021).
